From patent US9302991B2, “Arylamide derivatives as TTX-S blockers” (RaQualia Pharma Inc., priority 2010, dated 2016)
pIC50: −log10 of the molar value.

Legend:
[1] = molecular target: T1, human Nav1.3 channels (Homo sapiens, UniProt Q9NY46); assay: FRET assay, human Nav1.3 (EFS on FDSS); format: cell-based; conditions: HEK293 cells expressing human Nav1.3, read-out: IC50 against Nav1.3
T1 construct: expressed in transfected cells; host or cells: HEK293
Procedure, shortened: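 HEK293 cells expressing the channel, loaded with 10 microM CC2-DMPE then 15 microM DiSBAC2(3) plus 0.555 mM VABSC-1 in pH 7.4 HEPES buffer at room temperature. Membrane potential changes evoked by electrical field stimulation after compound addition; IC50 from 440 nm-normalized FRET ratios.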

[2] = molecular target: T2, human Nav1.7 channels (Homo sapiens, UniProt Q15858); assay: FRET assay, human Nav1.7 (EFS on FDSS); format: cell-based; conditions: CHO cells expressing human Nav1.7, read-out: IC50 against Nav1.7
T2 construct: expressed in transfected cells; host or cells: CHO
T2 sequence (Q15858 whole entry): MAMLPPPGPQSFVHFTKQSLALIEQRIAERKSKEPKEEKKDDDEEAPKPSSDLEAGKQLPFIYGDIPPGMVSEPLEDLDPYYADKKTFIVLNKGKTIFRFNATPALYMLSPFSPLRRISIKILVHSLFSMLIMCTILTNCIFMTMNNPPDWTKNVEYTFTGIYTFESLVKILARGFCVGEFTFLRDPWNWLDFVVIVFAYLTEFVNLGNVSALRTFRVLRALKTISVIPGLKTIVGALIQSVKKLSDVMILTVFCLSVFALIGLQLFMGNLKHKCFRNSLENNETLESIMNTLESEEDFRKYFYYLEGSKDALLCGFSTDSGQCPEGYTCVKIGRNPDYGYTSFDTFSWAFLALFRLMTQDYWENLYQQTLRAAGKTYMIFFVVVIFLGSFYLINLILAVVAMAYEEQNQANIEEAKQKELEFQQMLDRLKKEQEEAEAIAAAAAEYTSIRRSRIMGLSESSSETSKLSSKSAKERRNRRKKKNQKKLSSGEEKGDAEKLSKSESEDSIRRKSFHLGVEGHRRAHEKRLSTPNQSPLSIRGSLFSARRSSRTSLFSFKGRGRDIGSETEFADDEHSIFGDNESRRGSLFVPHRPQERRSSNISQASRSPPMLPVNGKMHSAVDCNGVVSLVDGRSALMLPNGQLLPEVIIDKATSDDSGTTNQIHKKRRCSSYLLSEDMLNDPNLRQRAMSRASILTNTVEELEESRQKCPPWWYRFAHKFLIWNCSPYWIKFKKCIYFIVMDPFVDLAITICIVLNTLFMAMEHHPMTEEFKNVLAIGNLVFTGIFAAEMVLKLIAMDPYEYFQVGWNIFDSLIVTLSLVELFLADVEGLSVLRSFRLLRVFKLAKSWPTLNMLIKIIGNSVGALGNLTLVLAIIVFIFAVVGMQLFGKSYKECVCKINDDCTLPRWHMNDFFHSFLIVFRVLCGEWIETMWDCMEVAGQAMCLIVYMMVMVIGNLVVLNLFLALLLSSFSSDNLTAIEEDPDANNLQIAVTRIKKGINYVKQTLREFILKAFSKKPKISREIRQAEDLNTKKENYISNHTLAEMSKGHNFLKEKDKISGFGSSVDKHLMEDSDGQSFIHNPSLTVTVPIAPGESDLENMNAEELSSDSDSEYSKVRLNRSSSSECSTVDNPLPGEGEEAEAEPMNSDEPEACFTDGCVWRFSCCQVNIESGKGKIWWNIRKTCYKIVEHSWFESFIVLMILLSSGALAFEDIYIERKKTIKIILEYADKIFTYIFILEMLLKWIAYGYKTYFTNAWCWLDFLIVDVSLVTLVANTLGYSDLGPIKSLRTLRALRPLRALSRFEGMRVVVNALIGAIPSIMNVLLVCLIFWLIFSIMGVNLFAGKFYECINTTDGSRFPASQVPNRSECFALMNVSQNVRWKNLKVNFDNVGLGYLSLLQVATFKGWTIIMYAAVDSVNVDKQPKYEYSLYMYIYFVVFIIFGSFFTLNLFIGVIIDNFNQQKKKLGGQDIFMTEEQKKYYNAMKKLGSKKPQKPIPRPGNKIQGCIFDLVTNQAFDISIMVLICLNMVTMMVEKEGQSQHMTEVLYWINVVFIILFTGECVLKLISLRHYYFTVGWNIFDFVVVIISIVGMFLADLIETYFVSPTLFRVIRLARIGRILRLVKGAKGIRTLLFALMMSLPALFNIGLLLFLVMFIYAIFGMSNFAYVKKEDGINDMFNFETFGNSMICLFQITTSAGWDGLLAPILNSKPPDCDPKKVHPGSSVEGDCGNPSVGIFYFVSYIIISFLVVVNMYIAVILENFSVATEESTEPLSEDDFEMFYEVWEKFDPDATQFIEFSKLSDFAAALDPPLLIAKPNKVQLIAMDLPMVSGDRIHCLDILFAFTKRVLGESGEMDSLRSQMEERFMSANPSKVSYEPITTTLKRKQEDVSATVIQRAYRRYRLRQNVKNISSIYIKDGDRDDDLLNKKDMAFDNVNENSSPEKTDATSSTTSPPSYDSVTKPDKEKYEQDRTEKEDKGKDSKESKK
Procedure, shortened: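 CHO cells stably expressing the channel, loaded with CC2-DMPE (10 µM) then DiSBAC2(3) (15 µM) plus VABSC-1, in HEPES-buffered saline pH 7.4 at room temperature. Electrical field stimulation on FDSS; FRET ratio at 440 nm fitted for IC50.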

T1 sequence (Q9NY46 whole entry): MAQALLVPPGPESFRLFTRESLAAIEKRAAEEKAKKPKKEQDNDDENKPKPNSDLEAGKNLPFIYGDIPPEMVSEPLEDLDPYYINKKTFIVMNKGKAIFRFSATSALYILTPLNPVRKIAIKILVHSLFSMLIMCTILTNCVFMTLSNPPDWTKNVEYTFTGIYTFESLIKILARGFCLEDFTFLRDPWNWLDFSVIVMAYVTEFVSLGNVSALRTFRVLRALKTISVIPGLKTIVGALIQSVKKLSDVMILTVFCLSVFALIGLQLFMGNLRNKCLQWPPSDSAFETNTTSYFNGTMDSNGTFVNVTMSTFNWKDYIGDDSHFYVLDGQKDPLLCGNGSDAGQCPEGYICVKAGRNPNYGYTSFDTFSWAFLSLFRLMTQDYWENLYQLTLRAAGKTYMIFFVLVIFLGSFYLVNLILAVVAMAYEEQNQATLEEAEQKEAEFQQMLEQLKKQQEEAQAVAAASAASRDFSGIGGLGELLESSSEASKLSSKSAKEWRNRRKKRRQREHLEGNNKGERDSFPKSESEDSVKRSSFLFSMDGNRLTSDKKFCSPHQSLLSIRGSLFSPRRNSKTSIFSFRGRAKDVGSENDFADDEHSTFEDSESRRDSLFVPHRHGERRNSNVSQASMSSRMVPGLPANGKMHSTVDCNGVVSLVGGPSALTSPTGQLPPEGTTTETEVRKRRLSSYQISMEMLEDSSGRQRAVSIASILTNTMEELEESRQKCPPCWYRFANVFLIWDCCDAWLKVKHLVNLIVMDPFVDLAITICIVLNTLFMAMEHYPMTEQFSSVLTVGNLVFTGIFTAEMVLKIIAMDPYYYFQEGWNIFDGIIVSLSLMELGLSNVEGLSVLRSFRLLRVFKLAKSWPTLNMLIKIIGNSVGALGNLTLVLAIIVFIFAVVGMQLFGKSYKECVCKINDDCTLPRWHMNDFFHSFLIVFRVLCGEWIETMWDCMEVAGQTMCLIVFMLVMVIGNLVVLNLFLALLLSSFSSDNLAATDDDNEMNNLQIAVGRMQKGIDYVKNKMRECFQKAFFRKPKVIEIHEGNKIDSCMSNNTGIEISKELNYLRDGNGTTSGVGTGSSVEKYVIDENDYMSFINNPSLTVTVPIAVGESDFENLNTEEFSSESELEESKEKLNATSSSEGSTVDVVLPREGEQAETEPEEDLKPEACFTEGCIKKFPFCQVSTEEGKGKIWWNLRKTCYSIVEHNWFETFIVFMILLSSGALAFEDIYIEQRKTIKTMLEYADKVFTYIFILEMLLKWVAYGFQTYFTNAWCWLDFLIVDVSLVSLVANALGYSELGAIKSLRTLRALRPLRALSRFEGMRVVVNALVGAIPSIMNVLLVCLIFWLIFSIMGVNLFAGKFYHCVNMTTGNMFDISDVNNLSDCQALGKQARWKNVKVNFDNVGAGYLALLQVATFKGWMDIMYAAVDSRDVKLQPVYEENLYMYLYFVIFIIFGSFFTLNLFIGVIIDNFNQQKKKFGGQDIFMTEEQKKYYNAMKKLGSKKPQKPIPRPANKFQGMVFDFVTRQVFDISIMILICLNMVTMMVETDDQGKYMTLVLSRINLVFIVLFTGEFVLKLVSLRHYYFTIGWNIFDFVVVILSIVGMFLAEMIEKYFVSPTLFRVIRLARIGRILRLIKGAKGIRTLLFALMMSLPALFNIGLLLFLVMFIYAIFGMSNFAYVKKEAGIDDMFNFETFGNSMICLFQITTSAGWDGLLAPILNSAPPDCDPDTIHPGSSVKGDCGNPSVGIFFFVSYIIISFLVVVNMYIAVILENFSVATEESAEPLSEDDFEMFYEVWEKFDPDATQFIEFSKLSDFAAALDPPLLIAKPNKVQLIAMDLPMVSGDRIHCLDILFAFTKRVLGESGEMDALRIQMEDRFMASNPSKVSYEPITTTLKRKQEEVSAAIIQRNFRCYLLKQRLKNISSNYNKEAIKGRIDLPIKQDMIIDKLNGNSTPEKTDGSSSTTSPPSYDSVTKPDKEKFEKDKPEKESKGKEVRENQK

Compound | pIC50 [1] | pIC50 [2]
Cc1cc(C(=O)NC(C)c2cnc(OCC(F)(F)F)c(C)c2)nc(Nc2ncco2)n1 (single isomer, unassigned) [Example 456, 6-methyl-N-(1-(5-methyl-6-(2,2,2-trifluoroethoxy)pyridin-3-yl)ethyl)-2-(oxazol-2-ylamino)pyrimidine-4-carboxamide] | > 6.00 | > 6.00
Cc1cc(C(=O)NC(C)c2cccc(OC(F)(F)F)c2)cc(NC(=O)C(C)C)n1 (single isomer, unassigned) [Example 499, 2-isobutyramido-6-methyl-N-(1-(3-(trifluoromethoxy)phenyl)ethyl)isonicotinamide] | > 6.00 | > 6.00
Cc1cc(C(=O)NC(C)c2cnc(OCC(F)(F)F)c(C)c2)cc(NC(=O)C(C)C)n1 (single isomer, unassigned) [Example 520, 2-isobutyramido-6-methyl-N-(1-(5-methyl-6-(2,2,2-trifluoroethoxy)pyridin-3-yl)ethyl)isonicotinamide] | > 6.00 | > 6.00
CCC(=O)Nc1cc(C(=O)NC(C)c2cnc(OCC(F)F)c(C)c2)cc(C)n1 (single isomer, unassigned) [Example 554, N-(1-(6-(2,2-difluoroethoxy)-5-methylpyridin-3-yl)ethyl)-2-methyl-6-propionamidoisonicotinamide] | > 6.00 | > 6.00
Cc1cc(C(C)NC(=O)c2ccnc(NC(=O)C(C)C)c2)cnc1OCC(F)F (single isomer, unassigned) [Example 555, N-(1-(6-(2,2-difluoroethoxy)-5-methylpyridin-3-yl)ethyl)-2-isobutyramidoisonicotinamide] | > 6.00 | > 6.00
Cc1cc(C(=O)NC(C)c2cnc(OCC(F)F)c(C)c2)cc(NC(=O)C(C)C)n1 (single isomer, unassigned) [Example 557, N-(1-(6-(2,2-difluoroethoxy)-5-methylpyridin-3-yl)ethyl)-2-isobutyramido-6-methylisonicotinamide] | > 6.00 | > 6.00
Cc1cc(C(C)NC(=O)c2ccnc(NC(=O)C3CC3)n2)cnc1OCC(F)F (single isomer, unassigned) [Example 558, 2-(cyclopropanecarboxamido)-N-(1-(6-(2,2-difluoroethoxy)-5-methylpyridin-3-yl)ethyl)pyrimidine-4-carboxamide] | > 6.00 | > 6.00
CCC(=O)Nc1cc(C(=O)NC(C)c2ccc(OCC(F)(F)F)c(Cl)c2)cc(C)n1 (single isomer, unassigned) [Example 677, N-(1-(3-chloro-4-(2,2,2-trifluoroethoxy)phenyl)ethyl)-2-methyl-6-propionamidoisonicotinamide] | > 6.00 | > 6.00
CC(NC(=O)c1ccnc(NC(=O)C2CC2)n1)c1ccc(OCC(F)(F)F)c(Cl)c1 (single isomer, unassigned) [Example 680, N-(1-(3-chloro-4-(2,2,2-trifluoroethoxy)phenyl)ethyl)-2-(cyclopropanecarboxamido)pyrimidine-4-carboxamide] | > 6.00 | > 6.00
Cc1cc(C(=O)NC(C)c2cnc(OCC(F)(F)F)c(C)c2)cc(NC(=O)C2CC2)n1 (single isomer, unassigned) [Example 823, 2-(cyclopropanecarboxamido)-6-methyl-N-(1-(5-methyl-6-(2,2,2-trifluoroethoxy)pyridin-3-yl)ethyl)isonicotinamide] | > 6.00 | > 6.00
Cc1cc(C(=O)NC(C)c2cnc(OCC(F)(F)F)c(Cl)c2)cc(NC(=O)C2CC2)n1 (single isomer, unassigned) [Example 832, N-(1-(5-chloro-6-(2,2,2-trifluoroethoxy)pyridin-3-yl)ethyl)-2-(cyclopropanecarboxamido)-6-methylisonicotinamide] | > 6.00 | > 6.00
Cc1cc(C(C)NC(=O)c2ccnc(NC(=O)C(C)C)c2)cnc1OCC(F)(F)C(F)F (single isomer, unassigned) [Example 904, 2-isobutyramido-N-(1-(5-methyl-6-(2,2,3,3-tetrafluoropropoxy)pyridin-3-yl)ethyl)isonicotinamide] | > 6.00 | > 6.00
Cc1cc(C(=O)NC(C)c2cnc(OCC(F)(F)C(F)F)c(C)c2)cc(NC(=O)C(C)C)n1 (single isomer, unassigned) [Example 905, 2-isobutyramido-6-methyl-N-(1-(5-methyl-6-(2,2,3,3-tetrafluoropropoxy)pyridin-3-yl)ethyl)isonicotinamide] | > 6.00 | > 6.00
Cc1cc(C(C)NC(=O)c2ccnc(NC(=O)C3CC3)n2)cnc1OCC(F)(F)C(F)F (single isomer, unassigned) [Example 906, 2-(cyclopropanecarboxamido)-N-(1-(5-methyl-6-(2,2,3,3-tetrafluoropropoxy)pyridin-3-yl)ethyl)pyrimidine-4-carboxamide] | > 6.00 | > 6.00
CCC(=O)Nc1cc(C(=O)NC(C)c2cnc(OCC(F)(F)C(F)F)c(C)c2)ccn1 (single isomer, unassigned) [Example 925, N-(1-(5-methyl-6-(2,2,3,3-tetrafluoropropoxy)pyridin-3-yl)ethyl)-2-propionamidoisonicotinamide] | > 6.00 | > 6.00
Cc1cc(C(C)NC(=O)c2ccnc(NC(=O)C3CC3)c2)cnc1OCC(F)(F)C(F)F (single isomer, unassigned) [Example 926, 2-(cyclopropanecarboxamido)-N-(1-(5-methyl-6-(2,2,3,3-tetrafluoropropoxy)pyridin-3-yl)ethyl)isonicotinamide] | > 6.00 | > 6.00
CC(=O)Nc1cc(C(=O)NC(C)c2cnc(OCC(F)(F)C(F)F)c(C)c2)cc(C)n1 (single isomer, unassigned) [Example 927, 2-acetamido-6-methyl-N-(1-(5-methyl-6-(2,2,3,3-tetrafluoropropoxy)pyridin-3-yl)ethyl)isonicotinamide] | > 6.00 | > 6.00
Cc1cc(C(=O)NC(C)c2cnc(OCC(F)(F)F)c(C)c2)cc(NC(=O)CC2CC2)n1 (single isomer, unassigned) [Example 953, 2-(2-cyclopropylacetamido)-6-methyl-N-(1-(5-methyl-6-(2,2,2-trifluoroethoxy)pyridin-3-yl)ethyl)isonicotinamide] | > 6.00 | > 6.00
CCC(=O)Nc1cc(C(=O)NCc2cnc(OCC(F)(F)F)c(Cl)c2)ccn1 [Example 94, N-((5-chloro-6-(2,2,2-trifluoroethoxy)pyridin-3-yl)methyl)-2-propionamidoisonicotinamide] | > 6.00 | > 6.00
CCC(=O)Nc1cc(C(=O)NCc2cccc(C(F)(F)F)c2)cc(C)n1 [Example 127, 2-methyl-6-propionamido-N-(3-(trifluoromethyl)benzyl)isonicotinamide] | > 6.00 | > 6.00
CCC(=O)Nc1cc(C(=O)NCc2cc(C(F)(F)F)ccc2F)cc(C)n1 [Example 128, N-(2-fluoro-5-(trifluoromethyl)benzyl)-2-methyl-6-propionamidoisonicotinamide] | > 6.00 | > 6.00
CCC(=O)Nc1cc(C(=O)NCc2cccc(OC(F)F)c2)cc(C)n1 [Example 129, N-(3-(difluoromethoxy)benzyl)-2-methyl-6-propionamidoisonicotinamide] | > 6.00 | > 6.00
COc1nc(OCC(F)(F)F)ccc1CNC(=O)c1ccnc(NC(=O)C2CC2)c1 [Example 147, 2-(cyclopropanecarboxamido)-N-((2-methoxy-6-(2,2,2-trifluoroethoxy)pyridin-3-yl)methyl)isonicotinamide] | > 6.00 | > 6.00
COc1nc(OCC(F)(F)F)ccc1CNC(=O)c1ccnc(NC(C)=O)c1 [Example 148, 2-acetamido-N-((2-methoxy-6-(2,2,2-trifluoroethoxy)pyridin-3-yl)methyl)isonicotinamide] | > 6.00 | > 6.00
CCC(=O)Nc1cc(C(=O)NCc2ccc(OCC(F)(F)F)nc2OC)ccn1 [Example 149, N-((2-methoxy-6-(2,2,2-trifluoroethoxy)pyridin-3-yl)methyl)-2-propionamidoisonicotinamide] | > 6.00 | > 6.00
CCC(=O)Nc1cc(C(=O)NCc2ccc(OCC(F)(F)F)nc2OC)cc(C)n1 [Example 150, N-((2-methoxy-6-(2,2,2-trifluoroethoxy)pyridin-3-yl)methyl)-2-methyl-6-propionamidoisonicotinamide] | > 6.00 | > 6.00
O=C(NCc1ccc(OCC(F)(F)F)nc1)c1ccnc(NC(=O)C2CC2)c1 [Example 152, 2-(cyclopropanecarboxamido)-N-((6-(2,2,2-trifluoroethoxy)pyridin-3-yl)methyl)isonicotinamide] | > 6.00 | > 6.00
CCC(=O)Nc1cc(C(=O)NCc2ccc(OCC(F)(F)F)nc2)cc(C)n1 [Example 153, 2-methyl-6-propionamido-N-((6-(2,2,2-trifluoroethoxy)pyridin-3-yl)methyl)isonicotinamide] | > 6.00 | > 6.00
CC(C)C(=O)Nc1cc(C(=O)NCc2ccc(OCC(F)(F)F)nc2)ccn1 [Example 169, 2-isobutyramido-N-((6-(2,2,2-trifluoroethoxy)pyridin-3-yl)methyl)isonicotinamide] | > 6.00 | > 6.00
COc1nc(OCC(F)(F)F)ccc1CNC(=O)c1ccnc(NC(=O)C(C)C)c1 [Example 171, 2-isobutyramido-N-((2-methoxy-6-(2,2,2-trifluoroethoxy)pyridin-3-yl)methyl)isonicotinamide] | > 6.00 | > 6.00
